Measured values published in patent publication US6608203B2, “Tetrahydroisoquinoline compounds as estrogen agonists/antagonists” (Pfizer Inc., priority 1999, dated 2003).

What was measured:
male rats [1] = settings: cited from earlier work
[2] = unlike estrogen; cited from earlier work
male rats [3] = settings: 200 and 400 mg/kg/day; cited from earlier work
male Sprague-Dawley rats = assay: Assay 2: Effect on Prostate Weight; format: in vivo, rat; settings: subcutaneous injection daily for 14 days, compared to vehicle
Method: Three-month-old male Sprague-Dawley rats are administered by subcutaneous injection control vehicle (10% ethanol in water), estradiol (30 μg/kg), testosterone (1 mg/kg), or a test compound according to the present invention daily for 14 days (n=6/group). After 14 days the animals are sacrificed, the prostate is removed, and the wet prostate weight is determined. Mean weight is determined and statistical significance (p<0.05) is determined compared to the vehicle-treated group using the Student's t-test.

O=C(c1ccc(OCCN2CCCCC2)cc1)c1c(-c2ccc(O)cc2)sc2cc(O)ccc12 [raloxifene, 6-hydroxy-2-(4-hydroxyphenyl)-3-[4-(2-piperidinoethoxy)benzoyl] benzo[b] thiophene]
effect on ventral prostate (male rats [1]): regression of the ventral prostate | uterine stimulatory effect [2]: minimal uterine stimulatory effect

CC/C(=C(\c1ccccc1)c1ccc(OCCN(C)C)cc1)c1ccccc1 [tamoxifen, 1-(4-β-dimethylaminoethoxyphenyl)-1,2-diphenyl-but-1-ene]
weights of the testes and secondary sex organs (male rats [3]): reduces the weights of the testes and secondary sex organs

C[C@]12CC[C@@H]3c4ccc(O)cc4CC[C@H]3[C@@H]1CC[C@@H]2O [estrogen, estradiol]
effect on wet prostate weight (male Sprague-Dawley rats; estrogen at 30 μg/kg): significantly reduce prostate weight

C[C@]12CC[C@H]3[C@@H](CCC4=CC(=O)CC[C@@]43C)[C@@H]1CC[C@@H]2O [Testosterone, testosterone]
effect on wet prostate weight (male Sprague-Dawley rats; testosterone 1 mg/kg): no effect
